# US8426405B2, “Thiazopyrimidinones and uses thereof” (priority 2008, dated 2013)
# What was measured:
# HIV integrase wild type = biological target: T1, HIV integrase wild type (Human immunodeficiency virus type 1 group M subtype B, UniProt P04585); experiment: Strand transfer assay (enzyme assay), WT; type: biochemical, HIV-1
# T1 construct: The integrase coding region was then subject to PCR and cloned into a bacterial expression vector; made in house
# Excerpt: (§1) HIV integrase was mutated within a shuttle vector (pGEM) containing the majority of the HIV-1 gag and pol sequence using site directed mutagenesis to generate integrase sequences that have been published as conferring resistance to published integrase inhibitors. These include, but are not limited to, mutations such as Q148K. The integrase coding region was then subject to PCR and cloned into a bacterial expression vector. The specific introduction of desired mutation(s) was confirmed by sequence analysis. Proteins were expressed, purified and used in strand transfer assays.
# (§2) A strand transfer assay procedure similar to that published (Ovenden et al. Phytochemistry. 2004 December; 65(24):3255-9.) is used. Briefly, 400 ng of the enzyme, wild type or drug resistant mutant, is mixed with the compound to be tested and incubated with 30 nM substrate DNA. The substrate DNA is designed to mimic HIV DNA termini that has undergone 3′end processing, and consists of the annealed U5 LTR sequence oligonucleotides tagged with Digoxigenin (DIG; 5′-[…]-DIG-3′) or biotin (5′-Bio-[…]-3′) so that each substrate has either a DIG or Bio tag on opposite strands. Reactions are carried out for 1 hr at 37° C. Products generated as a result of strand transfer activity are bound to streptavidin plates and detected using anti-DIG-alkaline phosphatase conjugate and p-nitro phenyl phosphate substrate.
# HIV integrase E92Q/N155H = biological target: T2, HIV integrase E92Q/N155H (Human immunodeficiency virus type 1 group M subtype B, UniProt P04585, E1239Q/N1302H); experiment: Strand transfer assay (enzyme assay), E92Q/N155H; type: biochemical, HIV-1
# T2 construct: The integrase coding region was then subject to PCR and cloned into a bacterial expression vector; made in house
# Excerpt: as §1, §2
# [1] = biological target: T3, HIV integrase G140S/Q148H (Human immunodeficiency virus type 1 group M subtype B, UniProt P04585, G1287S/Q1295H); experiment: Strand transfer assay (enzyme assay), G140S/Q148H; type: biochemical, HIV-1
# T3 construct: The integrase coding region was then subject to PCR and cloned into a bacterial expression vector; made in house
# Excerpt: as §1, §2
# [2] = system: HIV variant T661 S153Y in integrase; experiment: Phenosense (PhenoScreen) assay, T661 S153Y; type: cell-based
# Excerpt: (§3) Monogram Bioscience' PhenoScreen assay allows the evaluation of integrase inhibitors for activity against a variety of HIV variants. The assay uses virus generated from 2 DNA constructs; one containing the HIV LTR, gag and pol regions, as well as a luciferase reporter gene in place of the viral envelope genes, and a second DNA construct containing the amphotrophic murine leukemia virus (A-MLV) envelope gene required to pseudotype virions and render them capable of entry into a target cell. Viruses generated using these constructs by transfection into a producer cell line such as 293T are capable of one-round of infection only. Successful integration events are directly proportional to the levels of luciferase expression 48 h after infection.
# (§4) The viral variants chosen by Avexa Ltd to screen their in-house integration inhibitors against consist of mutations within the viral integrase enzyme known to confer resistance to a number of known integration inhibitors published in the literature. In particular, the viral variants containing the Q148H/G140S double mutation in integrase, and the N155H/E92Q double mutation in integrase, represent two of the more common viruses identified to arise in patients that are failing treatment with Isentress (Raltegravir, MK-0518).
# [3] = system: HIV variant Y143R in integrase; experiment: Phenosense (PhenoScreen) assay, Y143R; type: cell-based
# Excerpt: as §3, §4
# [4] = system: HIV variant T125K F121Y in integrase; experiment: Phenosense (PhenoScreen) assay, T125K F121Y; type: cell-based
# Excerpt: as §3, §4
# HIV WT = experiment: Phenosense (PhenoScreen) assay, WT; type: cell-based; details: wild type HIV, luciferase 48 h after infection
# Excerpt: as §3, §4
# [5] = system: HIV variant N155H/E92Q double mutation in integrase; experiment: Phenosense (PhenoScreen) assay, E92Q N155H; type: cell-based
# Excerpt: as §3, §4
# [6] = system: HIV variant Q148H/G140S double mutation in integrase; experiment: Phenosense (PhenoScreen) assay, G140S Q148H; type: cell-based
# Excerpt: as §3, §4
Structure (SMILES),Enzyme WT (HIV integrase wild type),Enzyme E92Q/N155H (HIV integrase E92Q/N155H),Enzyme G140S/Q148H [1],Phenosense assay T661 S153Y [2],Phenosense assay Y143R [3],Phenosense assay T125K F121Y [4],Phenosense assay WT (HIV WT),Phenosense assay E92Q N155H [5],Phenosense assay G140S Q148H [6]
Cc1cn2c(=O)c(O)c(-c3ncc(Cc4ccc(Cl)c(Cl)c4)s3)nc2s1,+++ (+++ indicates value between 0.001 μM and 1 μM),++ (++ indicates value between 1 μM and 10 μM),+++ (+++ indicates value between 0.001 μM and 1 μM),–,–,–,–,–,–
Cc1cn2c(=O)c(O)c(-c3ncc(Cc4ccc(F)c(Cl)c4)s3)nc2s1,+++ (+++ indicates value between 0.001 μM and 1 μM),++ (++ indicates value between 1 μM and 10 μM),++ (++ indicates value between 1 μM and 10 μM),–,–,–,–,–,–
Cc1cn2c(=O)c(O)c(-c3ncc(Cc4ccc(F)cc4)s3)nc2s1,–,+++ (+++ indicates value between 0.001 μM and 1 μM),–,–,–,–,–,–,–
Cc1cn2c(=O)c(O)c(-c3ncc(Cc4ccc(Cl)cc4)s3)nc2s1,+++ (+++ indicates value between 0.001 μM and 1 μM),++ (++ indicates value between 1 μM and 10 μM),+ (+indicates value greater than 10 μM),–,–,–,–,–,–
Cc1cn2c(=O)c(O)c(C(=O)NCc3ccc(Cl)c(Cl)c3)nc2s1,+++ (+++ indicates value between 0.001 μM and 1 μM),–,–,–,–,–,–,–,–
Cc1cn2c(=O)c(O)c(C(=O)NCc3ccc(F)cc3)nc2s1,++ (++ indicates value between 1 μM and 10 μM),–,–,–,–,–,–,–,–
CN1CCN(Cc2cn3c(=O)c(O)c(C(=O)NCc4ccc(Cl)c(Cl)c4)nc3s2)CC1,+++ (+++ indicates value between 0.001 μM and 1 μM),–,–,++ (++ indicates value between 1 μM and 10 μM),+++ (+++ indicates value between 0.001 μM and 1 μM),+ (+indicates value greater than 10 μM),+++ (+++ indicates value between 0.001 μM and 1 μM),+ (+indicates value greater than 10 μM),+ (+indicates value greater than 10 μM)
O=C(NCc1ccc(Cl)c(Cl)c1)c1nc2sc(CN3CCOCC3)cn2c(=O)c1O,+++ (+++ indicates value between 0.001 μM and 1 μM),–,–,+ (+indicates value greater than 10 μM),+++ (+++ indicates value between 0.001 μM and 1 μM),+ (+indicates value greater than 10 μM),+++ (+++ indicates value between 0.001 μM and 1 μM),+ (+indicates value greater than 10 μM),+ (+indicates value greater than 10 μM)
O=C(NCc1ccc(F)cc1)c1nc2sc(CN3CCOCC3)cn2c(=O)c1O,++ (++ indicates value between 1 μM and 10 μM),–,–,+ (+indicates value greater than 10 μM),++ (++ indicates value between 1 μM and 10 μM),+ (+indicates value greater than 10 μM),++ (++ indicates value between 1 μM and 10 μM),+ (+indicates value greater than 10 μM),+ (+indicates value greater than 10 μM)
Cc1csc2nc(C(=O)NCc3ccc(Cl)c(Cl)c3)c(O)c(=O)n12,+++ (+++ indicates value between 0.001 μM and 1 μM),–,–,+ (+indicates value greater than 10 μM),+++ (+++ indicates value between 0.001 μM and 1 μM),+ (+indicates value greater than 10 μM),+++ (+++ indicates value between 0.001 μM and 1 μM),+ (+indicates value greater than 10 μM),+ (+indicates value greater than 10 μM)
CC(C)c1cn2c(=O)c(O)c(C(=O)NCc3ccc(Cl)c(Cl)c3)nc2s1,+++ (+++ indicates value between 0.001 μM and 1 μM),–,–,++ (++ indicates value between 1 μM and 10 μM),+++ (+++ indicates value between 0.001 μM and 1 μM),+ (+indicates value greater than 10 μM),+++ (+++ indicates value between 0.001 μM and 1 μM),+ (+indicates value greater than 10 μM),+ (+indicates value greater than 10 μM)
